Source: ChEMBL document CHEMBL1201862, “PubChem BioAssay data set” (2004)
Calls of active or inactive are those of the source.

Experiments:
[1] = biological target: T1, DNA repair protein RAD52 homolog (Homo sapiens, UniProt P43351); assay type: functional, biochemical
T1 sequence (P43351 whole entry): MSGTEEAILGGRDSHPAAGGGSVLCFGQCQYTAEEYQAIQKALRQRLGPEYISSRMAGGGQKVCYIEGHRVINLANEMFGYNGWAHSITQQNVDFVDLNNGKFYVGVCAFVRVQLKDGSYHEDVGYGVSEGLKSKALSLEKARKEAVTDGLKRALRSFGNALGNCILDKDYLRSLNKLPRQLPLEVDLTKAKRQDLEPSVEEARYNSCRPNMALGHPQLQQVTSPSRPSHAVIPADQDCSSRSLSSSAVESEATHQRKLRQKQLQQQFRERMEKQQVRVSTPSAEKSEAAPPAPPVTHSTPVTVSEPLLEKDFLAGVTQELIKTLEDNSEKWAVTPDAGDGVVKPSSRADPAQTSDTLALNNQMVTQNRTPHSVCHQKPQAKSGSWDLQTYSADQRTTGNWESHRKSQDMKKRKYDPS

HEK293 = assay: cells; assay type: functional, cell-based; conditions: Homo sapiens
[2] = biological target: T2, DNA repair and recombination protein RAD54-like (Homo sapiens, UniProt Q92698); assay: inhibitors of human RAD54 branch migration, confirmation, biochemical, fluorescence, cherry-picked samples, dose series (AID 651657); assay type: functional
T2 sequence (Q92698 whole entry): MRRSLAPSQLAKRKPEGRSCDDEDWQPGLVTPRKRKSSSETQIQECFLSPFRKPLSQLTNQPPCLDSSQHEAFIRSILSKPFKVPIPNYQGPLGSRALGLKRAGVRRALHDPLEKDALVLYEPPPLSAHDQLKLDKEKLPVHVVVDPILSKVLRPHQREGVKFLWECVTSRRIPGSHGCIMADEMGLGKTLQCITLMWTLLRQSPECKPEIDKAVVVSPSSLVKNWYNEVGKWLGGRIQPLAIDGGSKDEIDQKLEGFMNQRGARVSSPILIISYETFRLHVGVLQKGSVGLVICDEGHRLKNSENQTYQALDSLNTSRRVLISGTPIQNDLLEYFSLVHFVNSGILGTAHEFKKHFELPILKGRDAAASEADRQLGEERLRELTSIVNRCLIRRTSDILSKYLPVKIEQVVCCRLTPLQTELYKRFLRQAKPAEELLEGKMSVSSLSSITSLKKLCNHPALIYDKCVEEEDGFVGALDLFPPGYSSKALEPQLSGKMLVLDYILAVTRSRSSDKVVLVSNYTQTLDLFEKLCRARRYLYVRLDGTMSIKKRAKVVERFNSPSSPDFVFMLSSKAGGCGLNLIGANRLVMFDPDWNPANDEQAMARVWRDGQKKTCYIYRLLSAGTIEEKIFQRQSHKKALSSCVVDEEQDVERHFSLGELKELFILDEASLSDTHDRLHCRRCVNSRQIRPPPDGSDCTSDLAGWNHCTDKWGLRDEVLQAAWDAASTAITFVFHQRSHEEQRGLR

[3] = biological target: T3, Nuclear receptor subfamily 0 group B member 1 (Homo sapiens, UniProt P51843); assay: Luminescence-based cell-based high throughput dose response assay for inhibitors of the orphan nuclear receptor subfamily 0, group B, member 1 (DAX1; NR0B1). [Related pubchem assays (depositor defined):AID504766, AID504790]; assay type: functional
T3 sequence (P51843 whole entry): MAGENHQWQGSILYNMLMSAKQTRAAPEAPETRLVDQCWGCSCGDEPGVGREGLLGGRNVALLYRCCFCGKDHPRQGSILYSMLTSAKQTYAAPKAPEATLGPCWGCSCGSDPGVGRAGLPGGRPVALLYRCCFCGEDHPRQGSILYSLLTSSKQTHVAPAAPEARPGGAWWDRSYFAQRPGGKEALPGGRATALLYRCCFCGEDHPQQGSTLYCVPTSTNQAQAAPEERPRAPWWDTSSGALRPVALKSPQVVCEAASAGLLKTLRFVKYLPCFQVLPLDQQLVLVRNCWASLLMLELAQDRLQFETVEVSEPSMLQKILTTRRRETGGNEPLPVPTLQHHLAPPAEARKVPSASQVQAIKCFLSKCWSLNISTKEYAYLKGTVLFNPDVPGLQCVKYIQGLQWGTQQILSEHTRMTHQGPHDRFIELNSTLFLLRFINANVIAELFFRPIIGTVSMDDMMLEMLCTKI

Vero = assay: host cell cytotoxicity of antiviral hits, dose response, cytotoxicity control for West Nile virus antiviral project, secondary assay (AID 1650); assay type: functional; conditions: Chlorocebus sabaeus
[4] = biological target: E3 ubiquitin-protein ligase UHRF1 (Homo sapiens, UniProt Q96T88); assay: Counterscreen for inhibitors of 5-meCpG-binding domain protein 2 (MBD2): TRFRET-based biochemical high throughput dose response assay to identify inhibitors of binding of ubiquitin-like with PHD and ring finger domains 1 (UHRF1) to methylated oligonucleotide.
Chain of E3 ubiquitin-protein ligase UHRF1 (Q96T88 whole entry, the tested form may be a part, canonical isoform): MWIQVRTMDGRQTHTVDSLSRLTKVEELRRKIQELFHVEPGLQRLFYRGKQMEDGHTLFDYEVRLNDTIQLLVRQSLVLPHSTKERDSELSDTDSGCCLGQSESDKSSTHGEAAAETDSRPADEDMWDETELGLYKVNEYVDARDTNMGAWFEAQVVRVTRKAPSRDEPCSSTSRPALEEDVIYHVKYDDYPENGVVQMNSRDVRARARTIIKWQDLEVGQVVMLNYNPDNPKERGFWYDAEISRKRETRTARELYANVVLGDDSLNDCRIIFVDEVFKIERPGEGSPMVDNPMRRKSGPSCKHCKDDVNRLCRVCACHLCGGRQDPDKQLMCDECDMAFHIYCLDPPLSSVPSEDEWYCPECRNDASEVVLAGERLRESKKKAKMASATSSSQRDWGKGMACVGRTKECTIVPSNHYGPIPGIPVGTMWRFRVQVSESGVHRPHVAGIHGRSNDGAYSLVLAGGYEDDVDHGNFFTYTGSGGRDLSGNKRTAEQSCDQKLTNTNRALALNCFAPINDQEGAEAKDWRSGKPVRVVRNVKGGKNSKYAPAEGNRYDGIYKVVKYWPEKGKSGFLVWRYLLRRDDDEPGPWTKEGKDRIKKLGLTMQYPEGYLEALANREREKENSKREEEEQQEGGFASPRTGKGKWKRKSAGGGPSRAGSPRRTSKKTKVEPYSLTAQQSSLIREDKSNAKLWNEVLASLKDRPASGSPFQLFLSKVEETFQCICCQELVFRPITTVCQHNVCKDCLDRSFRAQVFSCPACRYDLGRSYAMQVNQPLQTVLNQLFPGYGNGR

[5] = biological target: T4, Low molecular weight phosphotyrosine protein phosphatase (Homo sapiens, UniProt P24666); assay: LMPTP phosphatase inhibitors, colorimetric pNPP readout, dose response, orthogonal assay, biochemical, absorbance, pNPP substrate, LMPTP-A isoform, set 2 (AID 743308); assay type: functional
T4 sequence (P24666 whole entry): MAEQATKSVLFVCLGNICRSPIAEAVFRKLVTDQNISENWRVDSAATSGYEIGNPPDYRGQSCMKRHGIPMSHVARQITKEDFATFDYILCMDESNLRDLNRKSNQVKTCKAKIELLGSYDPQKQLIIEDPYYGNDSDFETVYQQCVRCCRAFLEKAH

[6] = biological target: T4, Low molecular weight phosphotyrosine protein phosphatase; assay: LMPTP phosphatase inhibitors, dose response, biochemical, OMFP substrate, fluorescence intensity, set 2 (AID 743307); assay type: functional
[7] = biological target: G-protein coupled receptor 183 (Homo sapiens, UniProt P32249); assay: SAR confirmation of small molecule antagonists of the EBI2 receptor via a luminescent beta-arrestin assa.; assay type: functional
Chain of G-protein coupled receptor 183 (P32249 whole entry): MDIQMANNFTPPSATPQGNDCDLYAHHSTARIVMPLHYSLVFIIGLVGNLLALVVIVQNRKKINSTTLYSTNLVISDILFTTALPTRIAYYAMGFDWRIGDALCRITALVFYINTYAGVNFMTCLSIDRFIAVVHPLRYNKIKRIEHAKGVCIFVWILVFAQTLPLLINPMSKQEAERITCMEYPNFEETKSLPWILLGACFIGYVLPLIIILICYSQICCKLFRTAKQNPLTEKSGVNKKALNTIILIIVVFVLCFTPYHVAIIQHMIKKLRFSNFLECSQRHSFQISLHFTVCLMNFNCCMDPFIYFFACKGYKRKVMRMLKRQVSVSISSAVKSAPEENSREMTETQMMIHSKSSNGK

[8] = biological target: T5, Calpain-2 catalytic subunit (Sus scrofa, UniProt P43367); assay: pig calpain II inhibitor potency, dose response, biochemical, fluorogenic peptide substrate (AID 1420); assay type: functional
T5 sequence (P43367 whole entry): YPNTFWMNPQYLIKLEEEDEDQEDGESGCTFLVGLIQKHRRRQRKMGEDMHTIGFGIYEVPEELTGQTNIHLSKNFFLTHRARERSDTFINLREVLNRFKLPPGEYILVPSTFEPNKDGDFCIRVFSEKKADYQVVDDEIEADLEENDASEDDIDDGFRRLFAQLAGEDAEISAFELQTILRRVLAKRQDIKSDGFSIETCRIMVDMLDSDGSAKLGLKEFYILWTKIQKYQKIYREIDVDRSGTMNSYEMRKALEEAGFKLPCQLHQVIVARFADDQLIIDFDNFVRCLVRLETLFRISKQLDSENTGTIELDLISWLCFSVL

[9] = Vero cell cytotoxicity, dose response, cytotoxicity control for Vif-APOBEC3G degradation inhibitor project, Vero cells (AID 1117358); assay type: functional; conditions: Human immunodeficiency virus 1, Vero
Phospholipase D2 = Phospholipase D2 (Homo sapiens, UniProt O14939); assay: PLD2 Cellular Concentration Response Study.; assay type: functional
Chain of Phospholipase D2 (O14939 whole entry): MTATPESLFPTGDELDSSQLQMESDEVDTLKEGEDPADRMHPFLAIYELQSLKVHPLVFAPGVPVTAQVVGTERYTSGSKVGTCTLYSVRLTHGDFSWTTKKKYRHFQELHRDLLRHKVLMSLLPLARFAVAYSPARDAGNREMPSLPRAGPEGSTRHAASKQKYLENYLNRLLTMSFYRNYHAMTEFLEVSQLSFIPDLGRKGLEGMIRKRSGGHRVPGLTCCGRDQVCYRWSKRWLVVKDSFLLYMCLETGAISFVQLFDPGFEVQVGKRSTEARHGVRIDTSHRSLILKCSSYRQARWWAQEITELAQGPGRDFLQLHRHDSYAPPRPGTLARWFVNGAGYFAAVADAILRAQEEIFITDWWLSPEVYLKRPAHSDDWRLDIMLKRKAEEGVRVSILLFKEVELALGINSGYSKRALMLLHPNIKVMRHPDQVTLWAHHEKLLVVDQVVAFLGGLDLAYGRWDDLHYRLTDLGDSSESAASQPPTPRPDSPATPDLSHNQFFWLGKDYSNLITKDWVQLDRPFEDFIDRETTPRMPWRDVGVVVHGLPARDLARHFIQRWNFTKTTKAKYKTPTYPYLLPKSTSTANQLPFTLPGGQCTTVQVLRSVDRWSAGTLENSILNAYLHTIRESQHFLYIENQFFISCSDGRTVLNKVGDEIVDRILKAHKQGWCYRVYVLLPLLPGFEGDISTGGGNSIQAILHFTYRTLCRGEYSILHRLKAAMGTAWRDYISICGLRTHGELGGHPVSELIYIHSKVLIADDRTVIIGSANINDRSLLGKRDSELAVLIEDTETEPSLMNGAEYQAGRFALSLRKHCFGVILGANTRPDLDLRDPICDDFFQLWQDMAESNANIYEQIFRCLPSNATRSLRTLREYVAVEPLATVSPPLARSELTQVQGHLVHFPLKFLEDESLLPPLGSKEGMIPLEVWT

Phospholipase D1 = Phospholipase D1 (Homo sapiens, UniProt Q13393); assay: PLD1 Cellular Concentration Response Study.; assay type: functional
Chain of Phospholipase D1 (Q13393 whole entry): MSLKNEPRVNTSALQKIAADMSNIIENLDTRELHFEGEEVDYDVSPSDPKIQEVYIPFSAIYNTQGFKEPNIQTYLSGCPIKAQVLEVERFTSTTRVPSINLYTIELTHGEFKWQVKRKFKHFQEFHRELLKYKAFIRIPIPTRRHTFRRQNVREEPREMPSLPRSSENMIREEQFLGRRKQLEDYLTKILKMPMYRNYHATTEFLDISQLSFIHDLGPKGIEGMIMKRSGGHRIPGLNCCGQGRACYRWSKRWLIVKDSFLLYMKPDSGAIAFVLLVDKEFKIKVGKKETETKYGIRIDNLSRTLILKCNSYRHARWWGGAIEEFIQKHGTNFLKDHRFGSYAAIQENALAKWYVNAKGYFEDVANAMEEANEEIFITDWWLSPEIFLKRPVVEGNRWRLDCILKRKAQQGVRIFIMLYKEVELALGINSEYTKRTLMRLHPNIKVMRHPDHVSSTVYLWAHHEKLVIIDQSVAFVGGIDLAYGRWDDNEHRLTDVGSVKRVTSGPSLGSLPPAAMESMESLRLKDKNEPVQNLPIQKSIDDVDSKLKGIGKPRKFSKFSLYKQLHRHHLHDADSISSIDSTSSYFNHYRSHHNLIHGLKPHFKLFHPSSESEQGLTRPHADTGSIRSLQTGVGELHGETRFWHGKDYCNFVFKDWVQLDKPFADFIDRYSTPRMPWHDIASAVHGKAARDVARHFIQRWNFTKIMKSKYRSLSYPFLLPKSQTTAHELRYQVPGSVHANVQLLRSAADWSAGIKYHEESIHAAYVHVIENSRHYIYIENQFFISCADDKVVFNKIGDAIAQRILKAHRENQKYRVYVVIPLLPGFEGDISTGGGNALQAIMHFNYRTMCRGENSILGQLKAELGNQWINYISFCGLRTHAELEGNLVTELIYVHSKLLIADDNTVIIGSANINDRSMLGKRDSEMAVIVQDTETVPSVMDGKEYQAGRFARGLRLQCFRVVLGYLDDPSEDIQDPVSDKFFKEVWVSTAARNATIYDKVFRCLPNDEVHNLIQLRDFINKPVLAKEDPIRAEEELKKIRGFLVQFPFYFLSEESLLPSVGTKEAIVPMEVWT

## CCOC(=O)c1cnc2c(ccc3ccccc32)c1NCCCN(C)C
[1]
  AC50: 1.38 µM (active)
HEK293
  IC50: > 67.5 µM (inactive)
[2]
  AC50: 3.38 µM (active)
[3]
  IC50: > 67.5 µM (inactive)
Vero
  CC50: > 100 µM (active)
[4]
  IC50: 35.7 µM (inactive)

## CC(C)Nc1nc(-c2ccccc2)nc2ccccc12
[5]
  IC50: 35.8 µM (inactive)
[6]
  IC50: 15 µM (active)

## O=C(/C=C/c1ccc(F)cc1)N1CCN(S(=O)(=O)c2ccc(Cl)cc2)CC1
[7]
  IC50: 0.00548 µM (active)

## Cc1cc(-c2ccccc2)nc(Oc2ccc(C(C)(C)C)cc2)c1S(C)(=O)=O
[8]
  IC50: > 50 µM (not active)
[9]
  CC50: > 40 µM (active)

## O=C(NCCN1CCC2(CC1)C(=O)NCN2Cc1ccccc1F)c1ccc2ccccc2c1
Phospholipase D2
  IC50: 0.2 µM (active)
Phospholipase D1
  IC50: 4.59 µM (active)
